Source: ChEMBL document CHEMBL4152293, “Synthesis and biological evaluation of podophyllotoxin derivatives as selective antitumor agents” (Eur J Med Chem, 2018)
Activity calls are given as the source filed them. No cut-off for these calls is given here.

Key:
MCF7 = experiment: Cytotoxicity against human MCF7 cells assessed as growth inhibition after 72 hrs by MTT assay; assay type: functional, cell-based; settings: MCF7, 72 h
HepG2 = experiment: Cytotoxicity against human HepG2 cells assessed as growth inhibition after 72 hrs by MTT assay; assay type: functional, cell-based; settings: HepG2, 72 h
A549 [1] = experiment: Induction of morphological changes in nucleus of human A549 cells at 10 to 30 nM after 72 hrs by DAPI staining-based fluorescence microscopic method; assay type: functional, cell-based
A549 [2] = experiment: Induction of apoptosis in human A549 cells assessed as early apoptotic cells at 10 nM after 72 hrs by annexin V-FITC/propidium iodide staining-based flow cytometric method (reference value: 3%); assay type: functional
A549 [3] = experiment: Induction of apoptosis in human A549 cells assessed as necrotic cells at 10 nM after 72 hrs by annexin V-FITC/propidium iodide staining-based flow cytometric method (reference value: 0.1%); assay type: functional
A549 [4] = experiment: Induction of apoptosis in human A549 cells assessed as viable cells at 100 nM after 72 hrs by annexin V-FITC/propidium iodide staining-based flow cytometric method (reference value: 92.8%); assay type: functional; settings: A549, 72 h, read-out: Activity
A549 [5] = experiment: Induction of apoptosis in human A549 cells assessed as early apoptotic cells at 200 nM after 72 hrs by annexin V-FITC/propidium iodide staining-based flow cytometric method (reference value: 3%); assay type: functional
A549 [6] = experiment: Induction of apoptosis in human A549 cells assessed as late apoptotic cells at 200 nM after 72 hrs by annexin V-FITC/propidium iodide staining-based flow cytometric method (reference value: 4.1%); assay type: functional
L02 [7] = experiment: Induction of apoptosis in human L02 cells assessed as late apoptotic cells at 200 nM after 72 hrs by annexin V-FITC/propidium iodide staining-based flow cytometric method (reference value: 1.6%); assay type: cell-based; settings: l02, 72 h, 0.2 µM
A549 [8] = experiment: Cell cycle arrest in human A549 cells assessed as accumulation at G0/G1 phase at 10 nM after 72 hrs by propidium iodide staining-based flow cytometric method (reference value: 61.29%); assay type: functional
A549 [9] = experiment: Cell cycle arrest in human A549 cells assessed as accumulation at S phase at 10 nM after 72 hrs by propidium iodide staining-based flow cytometric method (reference value: 24.48%); assay type: functional
A549 [10] = experiment: Cell cycle arrest in human A549 cells assessed as accumulation at G0/G1 phase at 100 nM after 72 hrs by propidium iodide staining-based flow cytometric method (reference value: 61.29%); assay type: functional
A549 [11] = experiment: Cell cycle arrest in human A549 cells assessed as accumulation at G2/M phase at 100 nM after 72 hrs by propidium iodide staining-based flow cytometric method (reference value: 14.23%); assay type: functional
L02 [12] = experiment: Cell cycle arrest in human L02 cells assessed as accumulation at G2/M phase at 5 nM after 72 hrs by propidium iodide staining-based flow cytometric method (reference value: 16.88%); assay type: ADME; settings: l02, 72 h, 0.005 µM
L02 [13] = experiment: Cell cycle arrest in human L02 cells assessed as accumulation at S phase at 100 nM after 72 hrs by propidium iodide staining-based flow cytometric method (reference value: 25.78%); assay type: ADME; settings: l02, 72 h, 0.1 µM

With `COc1cc([C@@H]2c3cc4c(cc3[C@H](OC(=O)CN(C)C(=O)OC(C)(C)C)[C@H]3COC(=O)[C@H]23)OCO4)cc(OC)c1OC` the IC50 (MCF7) was 0.133 µM, the IC50 (HepG2) was 0.0964 µM and the Activity (A549 [1]) was “Active”. For the same molecule, the Activity (A549 [2]) was 4.1%, the Activity (A549 [3]) was 0% and the viability at 0.1 µM (A549 [4]) was 12.4%. For the same molecule, the Activity (A549 [5]) was 92.8%, the Activity (A549 [6]) was 2.1% and the Activity (L02 [7]) was 3.1%. It also gave an Activity (A549 [8]) of 59.2%, an Activity (A549 [9]) of 27.26% and an Activity (A549 [10]) of 36.73%. The Activity (A549 [11]) was 17.14%, the Activity (L02 [12]) was 13.77% and the Activity (L02 [13]) was 18.93%.
